Results published in patent US20100279976A1, “USE OF ARTEMISININ AND ITS DERIVATIVES IN CANCER THERAPY” (SHANGHAI INSTITUTES FOR BIOLOGICAL SCIENCES, CAS, priority 2009, published 2010).

How the values were obtained:
[1] = test system: four hepatoma cell lines (HepG2, Hep3B, Huh-7, BEL-7404); test: MTT assay, mean over four hepatoma cell lines; format: cell-based; conditions: Homo sapiens, mean of HepG2, Hep3B, read-out: overall mean IC50 in the four hepatoma cell lines
Experimental: (§1) The effects of ART derivatives on the viability of the aforementioned cells may be determined using the MTT assay. Briefly, 2,000 cells per well were plated in triplicate in 96-well plates. After a 24-h incubation, the cells may be treated with varying concentrations of ART derivatives (0, 1, 5, 10, 25, 50, and 100 μmol/L) for 48 h. The MTT assay may be performed according to the manufacture's instruction and the resultant formazan crystals may be dissolved in DMSO (100 μL). The absorbance may be then recorded at 540 nm. The effects of ART derivatives on cell viability may be assessed by comparing the percent cell viability of the treated cells with the vehicle (DMSO)-treated control cells, which may be arbitrarily assigned at 100% viability. The experiment may be repeated thrice under the same conditions.

[2] = test system: IOSE144 immortalized non-tumorigenic ovarian surface epithelial cells; test: MTT cell viability assay, IOSE144; format: cell-based; conditions: Homo sapiens, IOSE-144, IOSE144, 48 hrs
Text: (§2) Human ovarian IOSE144 (immortalized non-tumorigenic human ovarian surface epithelial cells) and ovarian carcinoma (A2780 and OVCAR-3) cells that may be obtained from the American Type Culture Collection (ATCC, Manassas, Va.) are gifts from Dr. Jing Fang (Institute for Nutritional Sciences, Shanghai, China). All cells may be cultured according to the ATCC instructions. The compounds (ARS, ART, ARM and DHA) may be dissolved in DMSO (<0.1%, final concentration).
as §1

[3] = test system: OVCAR-3 ovarian carcinoma cells; test: MTT cell viability assay, OVCAR-3; format: cell-based; conditions: Homo sapiens, OVCAR-3, 48 hrs
Text: as §2, §1

Hep3B cells = test: Cell cycle analysis (propidium iodide, flow cytometry), Hep3B; format: cell-based, human; conditions: 48 h
Experimental: Cells (2×10^5) may be treated with ART and DHA (0, 1, 10, 25, and 50 μmol/L) as described above for 48 h. The harvested cells may be re-suspended in 200 μL of cold PBS, to which cold ethanol (600 μl) may be added, and the mixture may then be incubated for 2 h at 4° C. After centrifugation, the pellet may be washed with cold PBS, suspended in 500 μL PBS, and incubated with 50 μL RNase (20 μg/mL final concentration) for 30 min. The cells may be incubated with propidium iodide (50 μg/mL final concentration) for 30 min in the dark. The cell cycle distribution may be determined using a FACSAria instrument (BD Biosciences). The experiment may be repeated thrice under the same conditions.

[4] = test system: BEL-7404 hepatoma cells (p53 mutant); test: MTT cell viability assay, BEL-7404; format: cell-based; conditions: Homo sapiens, BEL-7404 (p53 mutant), 48 h
Experimental: as §1

[5] = test system: 7702 normal human liver cells; test: MTT cell viability assay, normal liver cells; format: cell-based; conditions: 7702 cells, 48 h; for IC20: read-out: IC20 (concentration that reduces growth by 20%)
Experimental: as §1

[6] = test system: HepG2 hepatoma cells (p53 wild-type); test: MTT cell viability assay, HepG2; format: cell-based; conditions: Homo sapiens, 48 h
Experimental: as §1

[7] = test system: A2780 ovarian carcinoma cells; test: MTT cell viability assay, A2780; format: cell-based; conditions: Homo sapiens, A2780, 48 hrs
Text: as §2, §1

HepG2 xenograft tumors = test: HepG2 xenograft model in nude mice; format: in vivo; conditions: for tumor growth inhibition: HepG2 xenograft, 5 d/wk for 4 wk
Experimental: Female athymic nude mice (nu/nu; 4-6 wk of age) may be obtained from Shanghai Slac Laboratory Animal Co. Ltd. All animals may be fed with commercial diet and water ad libitum. The human HCC xenograft models in mice may be as follows. Briefly, HepG2 and Hep3B cells may be re-suspended in serum-free DMEM with Matrigel basement membrane matrix at a 5:1 ratio. The cell suspension may then be injected (7×10^6 cells; total volume, 0.2 mL) into the left inguinal area of the BALB/c nude mice. The animals may be monitored for activity and physical condition everyday, and the determination of body weight and measurement of tumor mass may be done every 3 d. Tumor mass may be determined by caliper measurement in two perpendicular diameters of the implant and calculated using the formula ½a×b^2, where a stands for the long diameter and b is the short diameter. The animal use and care protocol is approved by the Institutional Review Board of the Institute for Nutritional Sciences, Chinese Academy of Sciences.
Nude mice bearing HepG2 and Hep3B xenografts, randomly divided into various treatment and control groups (five mice per group), may be treated orally with either ART or DHA suspended in 5% sesame oil+95% saline, at a dose of 50 or 100 mg/kg/d, or a combination of ART or DHA with gemcitabine or with saline (as controls). In the mice receiving combination therapy, 80 mg/kg gemcitabine, representing one fifth of the reported most tolerated dose in mice, may be administered i.p. on days 7, 11, and 15 to avoid possible side effects and to illustrate potential chemo-sensitization effects in this combination regimen.

HepG2 cells = test: MTT growth inhibition time course, alone or with gemcitabine; format: cell-based; conditions: Homo sapiens, HepG2, 10 μmol/L
Experimental: In addition, the growth-inhibitory effects of ART and DHA and the effects in combination with gemcitabine in HepG2 and Hep3B cells may also be determined using the MTT assay. Briefly, 700 cells per well may be plated in 96-well culture plates. After a 24-h incubation, the cells may be treated with 10 μmol/L ART, 10 μmol/L DHA, 10 μg/L gemcitabine, 10 μmol/L ART plus 10 μg/L gemcitabine, or 10 μmol/L DHA plus 10 μg/L gemcitabine for various times (0, 24, 48, 72, and 96 h). The results reflect the average of three replicates.

[8] = test system: Huh-7 hepatoma cells (p53 mutant); test: MTT cell viability assay, Huh-7; format: cell-based; conditions: Homo sapiens, Huh-7 (p53 mutant), 48 h
Experimental: as §1

[9] = HepG2 xenograft tissue, Western blot

SMILES | IC50 [1] [µM] | IC20 [2] [µM] | IC50 [2] [µM] | IC80 [2] [µM] | IC20 [3] [µM] | IC50 [3] [µM] | IC80 [3] [µM] | cells in the G1 phase (Hep3B cells; 1 μmol/L) [%] | cells in the G1 phase (Hep3B cells; 10 μmol/L) [%] | cells in the G1 phase (Hep3B cells; 25 μmol/L) [%] | cells in the G1 phase (Hep3B cells; 50 μmol/L) [%] | IC20 [4] [µM] | IC50 [4] [µM] | IC80 [4] [µM] | IC80 ([5]; Homo sapiens) [µM] | IC20 ([5]; Homo sapiens) [µM] | IC20 [6] [µM] | IC50 [6] [µM] | IC80 [6] [µM] | IC20 [7] [µM] | other results
C[C@@H]1CC[C@H]2[C@@H](C)C(=O)O[C@@H]3O[C@@]4(C)CC[C@@H]1[C@]32OO4 [ART, artemisinin] | 10.8 | 5.6 | > 500 | > 500 | 0.46 | 6.86 | 103 | 66.11 | 67.48 | 68.70 | 62.99 | 0.9 | 9.9 | 107 | > 500 | 3.6 | 1.3 | 14 | 145 | 0.73 | IC50 [5]: 60.9 µM; IC50 ([5]; Homo sapiens): ≥ 60.9 µM; IC50 [7]: 17.6 µM; IC80 [7]: 426 µM; G1-specific Cdks, cyclin D1, cyclin E, Cdk2, Cdk4, and E2F1 in tumor tissue (HepG2 xenograft tumors; [9]): decrease; MDM2 in tumor tissue (HepG2 xenograft tumors; [9]): decrease; activated caspase-3, cleaved PARP, Rb, p53, and the ratio of Bax/Bcl-2 in tumor tissue (HepG2 xenograft tumors; [9]): increases; p21 and p27 in tumor tissue (HepG2 xenograft tumors; [9]): increase; tumor growth inhibition (HepG2 xenograft tumors; oral 50 mg/kg/d): 30.0%; tumor growth inhibition (HepG2 xenograft tumors; oral 100 mg/kg/d): 39.4%; inhibition at 10 µM (HepG2 cells; 24 h, vs vehicle-treated cells): 69%; inhibition at 10 µM (HepG2 cells; 48 h): 92%; inhibition at 10 µM (HepG2 cells; 72 h): 96%; IC20 [8]: 0.7 µM; IC50 [8]: 8.9 µM; IC80 [8]: 115 µM
C[C@H]1[C@@H](O)O[C@@H]2O[C@@]3(C)CC[C@H]4[C@H](C)CC[C@@H]1[C@@]24OO3 [DHA, dihydroartemisinin] | 10.6 | 1.84 | 106 | > 500 | 0.56 | 6.58 | 77.4 | 68.11 | 69.03 | 70.50 | 62.99 | 0.7 | 9.3 | 130 | > 500 | 3.8 | 1.2 | 13.3 | 146 | 0.83 | IC50 [7]: 16.4 µM; IC80 [7]: 328 µM; toxic effects based on observations of bodyweight (HepG2 xenograft tumors; HepG2 xenograft mice, alone or in combination with gemcitabine): neither ART nor DHA causes any observable toxic effects; tumor growth inhibition (HepG2 xenograft tumors; oral 50 mg/kg/d): 36.1%; tumor growth inhibition (HepG2 xenograft tumors; oral 100 mg/kg/d): 60.6%; inhibition at 10 µM (HepG2 cells; 24 h, vs vehicle-treated cells): 74%; inhibition at 10 µM (HepG2 cells; 48 h): 93%; inhibition at 10 µM (HepG2 cells; 72 h): 97%; IC20 [8]: 0.7 µM; IC50 [8]: 9.6 µM; IC80 [8]: 131 µM
